Key:
[1] = test system: MDA-CDDP-S4 human Cisplatin-resistant breast adenocarcinoma cells; assay: MDA-CDDP-S4 Cisplatin-resistant breast adenocarcinoma, fat pad injection in SCID mice; type: in vivo; details: for Tumour weight as % of saline control: MDA-CDDP-S4 (breast), Cisplatin resistance, SCID
Experimental: MDA-CDDP-S4 human in vivo-selected Cisplatin-resistant breast adenocarcinoma cells (4×10^6 cells in 100 μl of PBS) were injected into the fat pad (inside of right leg) of 6-7 weeks old female SCID mice. After the size of tumour reached an approximate volume of 100 mm^3, 7 days post tumour cell injection, SEQ ID NO:1 was administered by bolus infusion into the tail vein every other day at 10 mg/kg 9 times. Control animals received saline alone for the same period. Antitumour effect of SEQ ID NO: 1 was further compared to that of Cisplatin or Taxol alone. Cisplatin was adminstered intravenously once a week for three weeks at a dose of 4 mg/kg. Taxol was administered intravenously once a week for three weeks at a dose of 10 mg/kg. Antitumour activities were estimated by the inhibition of tumour volume, which was measured with caliper. Each point represents mean tumour volume calculated from 10 animals per experimental group. […] As expected, treatment with Cisplatin during the same period was ineffective against Cisplatin-resistant tumour.
MDA-CDDP-S4 human in vivo-selected Cisplatin-resistant breast adenocarcinoma cells (4×10^6 cells in 100 μl of PBS) were injected into the fat pad (inside of right leg) of 6-7 weeks old female CB-17 SCID mice. After the size of tumour reached an approximate volume of 100 mm^3, 9 days post tumour cell injection, SEQ ID NO:1 was administered by bolus infusion into the tail vein every other day at 10 mg/kg. Control animals received saline alone for the same period. Antitumour effect of SEQ ID NO:1 was further compared to that of Taxol alone and in combination. Taxol was administered i.p. once a week at a dose of 10 mg/kg. Antitumour activities were estimated by the inhibition of tumour volume FIG. 22A), which was measured with calipers. Each point represents mean tumour volume calculated from 10 animals per experimental group. Animals were sacrificed and tumour weights taken at the end of the study (FIG. 22C). […] This study was repeated with similar results (FIG. 22B).

[2] = test system: SK-OV-3 human ovary adenocarcinoma cells; assay: SK-OV-3 ovary tumour xenograft in CD-1 nude mice; type: in vivo; details: SK-OV-3 (ovary); Mouse CD-1
Experimental: SK-OV-3 human ovary adenocarcinoma cells (1×10^7 cells in 100 μl of PBS) were subcutaneously injected into the right flank of 6-7 weeks old female CD-1 nude mice. After the size of tumour reached an approximate volume of 100 mm^3, 6 days post tumour cell injection, SEQ ID NO:1 was administered by bolus infusion into the tail vein every other day at 10 mg/kg 17 times. Control animals received saline alone for the same period. Antitumour effect of SEQ ID NO: 1 was further compared to that of taxol or cisplatin alone or in combination. Taxol was administered intravenously once a week for first three weeks and intraperitoneally once a week for next two weeks at a dose of 10 mg/kg. Cisplatin was administered intravenously once a week for first three weeks and intraperitoneally once a week for next two weeks at a dose of 4 mg/kg. All treatments were stopped at day 40. Antitumour activities were estimated by the inhibition of tumour volume, which was measured with caliper. Each point represents mean tumour volume calculated from 9 animals per experimental group.

[3] = test system: Human taxol-resistant promyelocytic leukaemia cells (HL-60); assay: HL-60 taxol-resistant promyelocytic leukaemia xenograft in SCID mice; type: in vivo
Experimental: Human taxol-resistant promyelocytic leukaemia cells (HL-60) (7×10^6 cells in 100 μl of PBS) were injected into the right flank of 6-7 weeks old female SCID mice. After the size of tumour reached an approximate volume of 100 mm^3, 10 days post tumour cell injection, SEQ ID NO:1 was administered by bolus infusion into the tail vein every other day at 10 mg/kg. Control animals received saline alone for the same period. The anti-tumour effect of SEQ ID NO:1 was further compared to that of taxol. Taxol was administered i.p. once a week at a dose of 10 mg/kg. Anti-tumour activity was estimated by the inhibition of tumour volume, which was measured with caliper. Each point represents mean tumour volume calculated from 10 animals per experimental group. In addition animals were sacrificed and tumour weights taken at the end of the study.

[4] = test system: MDA-MB-231 human breast cancer cells; assay: MDA-MB-231 breast tumour xenograft in CD-1 nude mice; type: in vivo; details: MDA-MB-231 (breast); Mouse CD-1
Experimental: MDA-MB-231 human breast cancer cells (1×10^7 cells in 100 μl of PBS) were subcutaneously injected into the right flank of 6-7 weeks old female CD-1 nude mice. After the size of tumour reached an approximate volume of 100 mm^3, 5 days post tumour cell injection, SEQ ID NO:1, or the scrambled control oligonucleotide (SEQ ID NO:3) were administered by bolus infusion into the tail vein every other day at 10 mg/kg. Control animals received saline alone for the same period. Antitumour effect of SEQ ID NO:1 was further compared to that of taxol or doxorubicin alone or in combination. Taxol was administered intravenously once a week at a dose of 10 mg/kg for three (FIG. 17A) or four weeks (FIG. 17C). Doxorubicin was administered intravenously once a week at a dose of 5 mg/kg for first three weeks (FIG. 17A) or for two weeks (FIG. 17C). All treatments were stopped at day 33 (FIG. 17A) or at day 26 (FIG. 17C), respectively. A day after the last treatment, tumours were excised from the animals and their weights were measured. […] In FIG. 17C, antitumour activities were estimated by the inhibition of tumour volume, which was measured with calipers. Each point represents mean tumour volume calculated from 10 animals per experimental group.

[5] = test system: MDA-MB435-To.1 human Taxol-resistant breast adenocarcinoma cells; assay: MDA-MB435-To.1 Taxol-resistant breast adenocarcinoma, fat pad injection in SCID mice; type: in vivo; design: Tumour weight as % of saline control: concentration or dose not given beside the values; details: for Tumour weight as % of saline control: MDA-MB435-To.1 (breast), Taxol resistance
Experimental: MDA-MB435-To.1 human Taxol-resistant breast adenocarcinoma cells (4×10^6 cells in […] of PBS) were injected into the fat pad (inside of right leg) of 6-7 weeks old female SCID mice. After the size of tumour reached an approximate volume of 100 mm^3, 20 days post tumour cell injection, SEQ ID NO:1 was administered by bolus infusion into the tail vein every other day at 10 mg/kg 15 times. Control animals received saline alone for the same period. Antitumour effect of SEQ ID NO:1 was further compared to that of Cisplatin or Taxol alone. Cisplatin was administered intravenously once a week for four weeks at a dose of 4 mg/kg. Taxol was administered intravenously once a week for four weeks at a dose of 20 mg/kg.
Antitumour activities were estimated by the inhibition of tumour volume, which was measured with caliper. Bach point represents mean tumour volume calculated from 9-10 animals per experimental group. […] As expected, treatment with Taxol during the same period was ineffective against Taxol-resistant tumour.
MDA-MB435-To.1 human Taxol-resistant breast adenocarcinoma cells (4×10^6 cells in 100 μl of PBS) were injected into the fat pad (inside of right leg) of 6-7 weeks old female CB-17 SCID mice. After the size of tumour reached an approximate volume of 100 mm^3, 17 days post tumour cell injection, SEQ ID NO:1 was administered by bolus infusion into the tail vein every other day at 10 mg/kg. Control animals received saline alone for the same period. Antitumour effect of SEQ ID NO:1 was compared to that of Cisplatin alone and in combination. Cisplatin was administered intravenously once a week for four weeks at a dose of 4 mg/kg. Antitumour activities were estimated by the inhibition of tumour volume, which was measured with caliper. Each point represents mean tumour volume calculated from 10 animals per experimental group. At the end of the study the animals were sacrificed and tumours weighed.

renal cell carcinoma = details: patients with renal cell carcinoma; cited from earlier work
[6] = test system: BxPC-3 human pancreatic carcinoma cells; assay: BxPC-3 gemcitabine resistant pancreatic carcinoma xenograft in CD-1 nude mice; type: in vivo
Experimental: BxPC-3 human pancreatic carcinoma cells (3×10^6 cells in 100 μl of PBS) were subcutaneously injected into the right flank of 6-7 weeks old female CD-1 nude mice. BxPC-3 is a gemcitabine resistant call line. After the size of tumour reached an approximate volume of 100 mm^3, 21 days post tumour cell injection, SEQ ID NO:1 was administered by bolus infusion into the tail vein every other day at 10 mg/kg 17 times. Control animals received saline alone for the same period. Antitumour effect of SEQ ID NO:1 was further compared to that of Gemcitabine. Gemcitabine was administered intravenously every three days at a dose of 100 mg/kg. Antitumour activities were estimated by the inhibition of tumour volume, which was measured with caliper. Each point represents mean tumour volume calculated from 10 animals per experimental group. […] As expected, treatment with Gemcitabine during the same period was ineffective against Gemcitabine-resistant tumour (FIGS. 19A & B).

[7] = test system: Hela S3 human cervix epitheloid carcinoma cells; assay: Hela S3 hydroxyurea resistant cervix carcinoma xenograft in SCID mice; type: in vivo; details: Hela S3 (cervix), hydroxyurea resistance; SCID
Experimental: Hela S3 human cervix epitheloid carcinoma cells (5×10^5 cells in 100 μl of PBS) were subcutaneously injected into the right flank of 6-7 weeks old female SCID mice. Hela S3 is a hydroxyurea resistant cell line. After the size of tumour reached an approximate volume of 100 mm^3, 3 days post tumour cell injection, SEQ ID NO:1 was administered by bolus infusion into the tail vein every other day at 10 mg/kg 6 times. Control animals received saline alone for the same period. Antitumour effect of SEQ ID NO:1 was further compared to that of Hydroxyurea or Cisplatin alone or in combination. Hydroxyurea was administered intraperitoneally every day at a dose of 250 mg/kg for 10 days. Cisplatin was administered intravenously once a week for three weeks at a dose of 4 mg/kg. Antitumour activities were estimated by the inhibition of tumour volume, which was measured with caliper. Each point represents mean tumour volume calculated from 10 animals per experimental group. […] As expected, treatment with Hydroxyurea during the same period was ineffective against Hydroxyurea-resistant tumour.

[8] = study with Taxol and Cisplatin alone

## CC(=O)O[C@H]1C(=O)[C@@]2(C)[C@H]([C@H](OC(=O)c3ccccc3)[C@]3(O)C[C@H](OC(=O)[C@H](O)[C@@H](NC(=O)c4ccccc4)c4ccccc4)C(C)=C1C3(C)C)[C@]1(OC(C)=O)CO[C@@H]1C[C@@H]2O [Taxol, Paclitaxel, reference compound]
[1]; Taxol combination study, first of two value columns
  Tumour weight as % of saline control: 26%
[1]; Taxol combination study, second of two value columns
  Tumour weight as % of saline control: 61%
[1]; [8]
  Tumour weight as % of saline control: 32%
[2]
  tumour volume data as percentage of saline control: 49%
[3]; HL-60 (leukemia), Taxol resistance, SCID
  Tumour weight as % of saline control: 119%
[3]; SEQ ID NO:1 10 mg/kg every other day, Taxol 10 mg/kg i.p. weekly
  anti-tumour effect (tumour volume, tumour weight): no effect on tumour growth or weight
[4]
  Tumour weight as % of saline control: 58%
[5]; Example 13.5, SEQ ID NO:1 10 mg/kg 15 times, Cisplatin 4 mg/kg, Taxol 20 mg/kg i.v. weekly for four weeks
  antitumour effect (tumour volume): ineffective
[5]; SCID
  Tumour weight as % of saline control: 109%

## CC(=O)O[C@]1(C(C)=O)CC[C@H]2[C@@H]3C[C@H](C)C4=CC(=O)CC[C@]4(C)[C@H]3CC[C@@]21C [MPA, medroxyprogesterone acetate, reference compound]
Renal cell carcinoma
  1-year survival: 31%

## Nc1ccn([C@@H]2O[C@H](CO)[C@@H](O)C2(F)F)c(=O)n1 [Gemcitabine, reference compound]
[6]; BxPC-3 (pancreatic), Gemcitabine resistance, CD-1
  Tumour weight as % of saline control: 83%
[6]; SEQ ID NO:1 10 mg/kg 17 times i.v., Gemcitabine 100 mg/kg i.v. every three days
  antitumour effect (tumour volume): ineffective

## N.N.[Cl][Pt][Cl] [Cisplatin, reference compound]
[1]; Example 13.3, SEQ ID NO:1 10 mg/kg 9 times, Cisplatin 4 mg/kg, Taxol 10 mg/kg i.v. weekly for three weeks
  antitumour effect (tumour volume): ineffective
[1]; [8]
  Tumour weight as % of saline control: 78%
[2]
  tumour volume data as percentage of saline control: 67%
[7]
  Tumour weight as % of saline control: 63%
[5]; CB-17/SCID
  Tumour weight as % of saline control: 56%
[5]; SCID
  Tumour weight as % of saline control: 69%

— patent publication US20080311126A1, “Antisense Oligonucleotides Directed to Ribonucleotide Reducatase R2 and Uses Thereof in Combination Therapies for the Treatment of Cancer” (Genesense Technologies, Inc, priority 2004, published 2008)
